The source of these data is patent US20180027748A1, “METHOD FOR PRODUCING METABOLITE CAPABLE OF IMPROVING DROUGHT TOLERANCE USING MICROORGANISM, AND METHOD FOR IMPROVING DROUGHT TOLERANCE OF PLANT USING SAID METABOLITE” (priority 2015, published 2018).

In the test the test system is white radish seeds. Description: Drought tolerance test on white radish after removal of aluminum foil. It counts as in vivo. The note with it: foil removed, samples A/B/C 10/100/300 μg/mL·agar extract, D 1 μg/mL·agar ABA, dH2O control G 27%. The procedure:
Samples A, B, and C were prepared containing, respectively, 10, 100, and 300 μg/mL·agar of the drought tolerance improving metabolite producing bacterium extract obtained by the method described above. The samples were each dispensed into 10 test tubes.
ABA standard samples D, E, and F were prepared containing, respectively, 1, 10, and 20 μg/mL·agar of abscisic acid (ABA) as a standard. The samples were each dispensed into 10 test tubes.
After a culture medium was prepared in each sample, one white radish seed was placed in each test tube. After each test tube was capped with aluminum foil, each seed was germinated in the dark.
Samples A to C, D and G prepared in test method 1 described above were subjected to a drought tolerance test after the aluminum foil was removed from each test tube.

Take `CC1=CC(=O)CC(C)(C)C1(O)/C=C/C(C)=C\C(=O)O` (stereo not shown) [Sample D, abscisic acid]: the “percentage of sound individuals (drought tolerance level)” value is given as 66%.
